Results published in US7417156B2, “Orally active, antimalarial, anticancer, artemisinin-derived trioxane dimers” (Johns Hopkins University, priority 2002, dated 2008).

Columns and labels:
SF-268 = test: NCI 60 cell line panel screen (SRB); format: cell-based, human
HT29 = test: NCI 60 cell line panel screen (SRB); format: cell-based, human
K-562 = test: NCI 60 cell line panel screen (SRB); format: cell-based, human
SK-MEL-28 = test: NCI 60 cell line panel screen (SRB); format: cell-based, human
NCI-H322M = format: cell-based
NCI-H23 = test: NCI 60 cell line panel screen (SRB); format: cell-based, human
M14 = test: NCI 60 cell line panel screen (SRB); format: cell-based, human
T-47D = test: NCI 60 cell line panel screen (SRB); format: cell-based, human
SK-OV-3 = test: NCI 60 cell line panel screen (SRB); format: cell-based, human; details: SK-OV-3 (Ovarian Cancer)
BT-549 = test: NCI 60 cell line panel screen (SRB); format: cell-based, human
OVCAR-8 = test: NCI 60 cell line panel screen (SRB); format: cell-based, human
NCI/ADR-RES = test: NCI 60 cell line panel screen (SRB); format: cell-based, human
PC-3 = test: NCI 60 cell line panel screen (SRB); format: cell-based, human
SF-539 = test: NCI 60 cell line panel screen (SRB); format: cell-based, human
MALME-3M = test: NCI 60 cell line panel screen (SRB); format: cell-based, human
A549/ATCC = test: NCI 60 cell line panel screen (SRB); format: cell-based, human
SNB-75 = test: NCI 60 cell line panel screen (SRB); format: cell-based, human
HOP-62 = test: NCI 60 cell line panel screen (SRB); format: cell-based, human
TK-10 = test: NCI 60 cell line panel screen (SRB); format: cell-based, human
60 cell line panel = format: cell-based
IGROVI = test: NCI 60 cell line panel screen (SRB); format: cell-based, human
OVCAR-3 = test: NCI 60 cell line panel screen (SRB); format: cell-based, human
HCT-116 = test: NCI 60 cell line panel screen (SRB); format: cell-based, human
U251 = test: NCI 60 cell line panel screen (SRB); format: cell-based, human
HOP-92 = test: NCI 60 cell line panel screen (SRB); format: cell-based, human
MDA-MB-435 = test: NCI 60 cell line panel screen (SRB); format: cell-based, human
[1] = mean value over the 60 cell line panel

C[C@@H]1CC[C@H]2[C@@H](C)C(CC(O)(CC3OC4O[C@]5(C)CC[C@H]6[C@H](C)CC[C@@H]([C@H]3C)C46OO5)c3ccc(C(=O)O)cc3)OC3O[C@]4(C)CCC1C32OO4 (stereo partly drawn) [Compound 11b, bis-trioxane tertiary alcohol benzoic acid]
Log10GI50 (SF-268; CNS Cancer, SF-268): −7.72 | Log10LC50 (SF-268; SF-268 (CNS Cancer), LC50: PG=−50): >−4.30 log10M | Log10TGI50 (SF-268; SF-268 (CNS Cancer), TGI: PG=0): >−4.30 log10M | Log10GI50 (HT29; Colon Cancer, HT29): <−8.30 | Log10LC50 (HT29; HT29 (Colon Cancer), LC50: PG=−50): >−4.30 log10M | Log10TGI50 (HT29; HT29 (Colon Cancer), TGI: PG=0): >−4.30 log10M | Log10LC50 (K-562; K-562 (Leukemia), LC50: PG=−50): >−4.30 log10M | Log10TGI50 (K-562; K-562 (Leukemia), TGI: PG=0): >−4.30 log10M | Log10GI50 (K-562; Leukemia, K-562): <−8.30 | Log10GI50 (SK-MEL-28; Melanoma, SK-MEL-28): −6.40 | Log10LC50 (SK-MEL-28; SK-MEL-28 (Melanoma), LC50: PG=−50): >−4.30 log10M | Log10TGI50 (SK-MEL-28; SK-MEL-28 (Melanoma), TGI: PG=0): >−4.30 log10M | Log10GI50 (NCI-H322M): −6.72 | Log10TGI50 (NCI-H322M): >−4.30 log10M | Log10LC50 (NCI-H322M; NCI-H322M (Non-Small Cell Lung Cancer), LC50: PG=−50): >−4.30 log10M | Log10LC50 (NCI-H23; NCI-H23 (Non-Small Cell Lung Cancer), LC50: PG=−50): >−4.30 log10M | Log10TGI50 (NCI-H23; NCI-H23 (Non-Small Cell Lung Cancer), TGI: PG=0): −4.63 log10M | Log10GI50 (NCI-H23; Non-Small Cell Lung Cancer, NCI-H23): −8.19 | Log10LC50 (M14; M14 (Melanoma), LC50: PG=−50): >−4.30 log10M | Log10TGI50 (M14; M-14 (Melanoma), TGI: PG=0): >−4.30 log10M | Log10GI50 (M14; Melanoma, M14): −7.81 | Log10GI50 (T-47D; Breast Cancer, T-47D): <−8.30 | Log10LC50 (T-47D; T-47D (Breast Cancer), LC50: PG=−50): >−4.30 log10M | Log10TGI50 (T-47D; T-47D (Breast Cancer), TGI: PG=0): >−4.30 log10M | Log10LC50 (SK-OV-3; LC50: PG=−50): >−4.30 log10M | Log10TGI50 (SK-OV-3; TGI: PG=0): >−4.30 log10M | Log10LC50 (BT-549; BT-549 (Breast Cancer), LC50: PG=−50): >−4.30 log10M | Log10TGI50 (BT-549; BT-549 (Breast Cancer), TGI: PG=0): −5.32 log10M | Log10GI50 (BT-549; Breast Cancer, BT-549): −5.82 | Log10LC50 (OVCAR-8; OVCAR-8 (Ovarian Cancer), LC50: PG=−50): >−4.30 log10M | Log10TGI50 (OVCAR-8; OVCAR-8 (Ovarian Cancer), TGI: PG=0): >−4.30 log10M | Log10GI50 (OVCAR-8; Ovarian Cancer, OVCAR-8): −5.26 | Log10GI50 (NCI/ADR-RES; Breast Cancer, NCI/ADR-RES): −6.84 | Log10LC50 (NCI/ADR-RES; NCI/ADR-RES (Breast Cancer), LC50: PG=−50): >−4.30 log10M | Log10TGI50 (NCI/ADR-RES; NCI/ADR-RES (Breast Cancer), TGI: PG=0): >−4.30 log10M | Log10LC50 (PC-3; PC-3 (Prostate Cancer), LC50: PG=−50): >−4.30 log10M | Log10TGI50 (PC-3; PC-3 (Prostate Cancer), TGI: PG=0): −5.75 log10M | Log10GI50 (PC-3; Prostate Cancer, PC-3): <−8.30 | Log10GI50 (SF-539; CNS Cancer, SF-539): −4.80 | Log10LC50 (SF-539; SF-539 (CNS Cancer), LC50: PG=−50): >−4.30 log10M | Log10TGI50 (SF-539; SF-539 (CNS Cancer), TGI: PG=0): >−4.30 log10M | Log10LC50 (MALME-3M; MALME-3M (Melanoma), LC50: PG=−50): >−4.30 log10M | Log10TGI50 (MALME-3M; MALME-3M (Melanoma), TGI: PG=0): −7.46 log10M | Log10GI50 (MALME-3M; Melanoma, MALME-3M): <−8.30 | Log10LC50 (A549/ATCC; A549/ATCC (Non-Small Cell Lung Cancer), LC50: PG=−50): >−4.30 log10M | Log10TGI50 (A549/ATCC; A549/ATCC (Non-Small Cell Lung Cancer), TGI: PG=0): >−4.30 log10M | Log10GI50 (A549/ATCC; Non-Small Cell Lung Cancer, A549/ATCC): −5.69 | Log10GI50 (SNB-75; CNS Cancer, SNB-75): −7.40 | Log10LC50 (SNB-75; SNB-75 (CNS Cancer), LC50: PG=−50): >−4.30 log10M | Log10TGI50 (SNB-75; SNB-75 (CNS Cancer), TGI: PG=0): >−4.30 log10M | Log10LC50 (HOP-62; HOP-62 (Non-Small Cell Lung Cancer), LC50: PG=−50): >−4.30 log10M | Log10TGI50 (HOP-62; HOP-62 (Non-Small Cell Lung Cancer), TGI: PG=0): >−4.30 log10M | Log10GI50 (HOP-62; Non-Small Cell Lung Cancer, HOP-62): −6.96 | Log10GI50 (TK-10; Renal Cancer, TK-10): −7.81 | Log10LC50 (TK-10; TK-10 (Renal Cancer), LC50: PG=−50): >−4.30 log10M | Log10TGI50 (TK-10; TK-10 (Renal Cancer), TGI: PG=0): −5.86 log10M | Log10GI50 Delta (60 cell line panel): 0.93 | Log10GI50 Range (60 cell line panel): 3.52 | Log10LC50 Delta (60 cell line panel; 60 cell line panel): 1.58 | Log10LC50 Range (60 cell line panel; 60 cell line panel): 1.65 | Log10TGI50 Delta (60 cell line panel; 60 cell line panel): 3.18 | Log10TGI50 Range (60 cell line panel; 60 cell line panel): 4.00 | growth inhibition in words (60 cell line panel; colon cancer KM12, ovarian cancer OVCAR 3, breast cancer MDA-MB-435): selectively and strong inhibitory | Log10GI50 MG MID (60 cell line panel; mean over panel): −7.37 | Log10LC50 MG MID (60 cell line panel; [1]): −4.37 log10M | Log10TGI50 MG MID (60 cell line panel; [1]): −5.12 log10M | Log10LC50 (IGROVI; IGROVI (Ovarian Cancer), LC50: PG=−50): >−4.30 log10M | Log10TGI50 (IGROVI; IGROVI (Ovarian Cancer), TGI: PG=0): −4.50 log10M | Log10GI50 (IGROVI; Ovarian Cancer, IGROVI): −5.98 | Log10LC50 (OVCAR-3; OVCAR-3 (Ovarian Cancer), LC50: PG=−50): >−4.30 log10M | Log10TGI50 (OVCAR-3; OVCAR-3 (Ovarian Cancer), TGI: PG=0): −8.07 log10M | Log10GI50 (OVCAR-3; Ovarian Cancer, OVCAR-3): <−8.30 | Log10GI50 (HCT-116; Colon Cancer, HCT-116): <−8.30 | Log10LC50 (HCT-116; HCT-116 (Colon Cancer), LC50: PG=−50): >−4.30 log10M | Log10TGI50 (HCT-116; HCT-116 (Colon Cancer), TGI: PG=0): −4.40 log10M | Log10GI50 (U251; CNS Cancer, U251): <−8.30 | Log10LC50 (U251; U251 (CNS Cancer), LC50: PG=−50): >−4.30 log10M | Log10TGI50 (U251; U251 (CNS Cancer), TGI: PG=0): −7.39 log10M | Log10LC50 (HOP-92; HOP-92 (Non-Small Cell Lung Cancer), LC50: PG=−50): >−4.30 log10M | Log10TGI50 (HOP-92; HOP-92 (Non-Small Cell Lung Cancer), TGI: PG=0): >−4.30 log10M | Log10GI50 (HOP-92; Non-Small Cell Lung Cancer, HOP-92): −7.43 | Log10GI50 (MDA-MB-435; Breast Cancer, MDA-MB-435): −8.16 | Log10LC50 (MDA-MB-435; MDA-MB-435 (Breast Cancer), LC50: PG=−50): >−4.30 log10M | Log10TGI50 (MDA-MB-435; MDA-MB-435 (Breast Cancer), TGI: PG=0): >−4.30 log10M
